Reference: patent US20260014147A1, “STAT6 DEGRADERS” (Gilead Sciences, Inc., priority 2024, published 2026)

How the values were obtained:
[1] = molecular target: T1, human STAT6 (truncated, aa122-658, with N-terminal His-tag) (Homo sapiens, UniProt P42226); assay: Surface Plasmon Resonance (SPR) assay: binding of compounds to immobilized human STAT6; details: immobilized human STAT6 (aa122-658), 25° C.; geometric mean
T1 construct: Human STAT6 (truncated, aa122-658, with N-terminal His-tag, expressed in insect cells); His-tag (N); made in house; host or cells: insect cells
T1 sequence (P42226 122-658): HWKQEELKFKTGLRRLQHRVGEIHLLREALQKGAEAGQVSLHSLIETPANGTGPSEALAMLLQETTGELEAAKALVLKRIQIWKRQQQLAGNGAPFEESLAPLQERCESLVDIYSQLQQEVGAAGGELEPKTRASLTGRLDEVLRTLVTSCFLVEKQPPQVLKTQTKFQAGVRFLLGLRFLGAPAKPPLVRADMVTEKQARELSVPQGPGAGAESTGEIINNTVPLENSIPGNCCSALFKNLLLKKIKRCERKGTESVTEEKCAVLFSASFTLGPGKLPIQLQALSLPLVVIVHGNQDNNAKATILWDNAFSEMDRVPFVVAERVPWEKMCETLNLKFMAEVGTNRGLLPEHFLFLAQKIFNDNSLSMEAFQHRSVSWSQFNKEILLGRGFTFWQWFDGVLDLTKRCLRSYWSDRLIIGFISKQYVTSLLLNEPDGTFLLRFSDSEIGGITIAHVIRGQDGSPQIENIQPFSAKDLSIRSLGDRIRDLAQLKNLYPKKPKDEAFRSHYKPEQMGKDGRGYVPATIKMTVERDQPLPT
Experimental: SPR was used to confirm and quantify binding of compounds to human STAT6. Biacore instruments from the 8K-series (Cytiva) were used, and measurements were performed at 25° C. Human STAT6 (truncated, aa122-658, with N-terminal His-tag, expressed in insect cells) was immobilized in the active flow cells on a CM5 chip using amine-coupling (default settings) at 10 μg/ml in 10 mM acetate buffer pH 5.5, at a contact time of 120-420 sec. and a flow rate of […]. Reference flow cells were deactivated using blank immobilization. PBS-P+ (Cytiva) supplemented with 2% DMSO was used as running buffer, and solvent correction was applied. Compounds were tested by multi-cycle kinetics injections using a contact time of 60 sec., dissociation time of up to 300 sec., and a flow rate of […].
Solvent-corrected, reference-subtracted and blank-corrected data was processed and binding isotherms were fitted according to a single report point from each sensorgram (Standard: Late binding (5 sec. before injection end); alternative: Earlier report point according to binding profile). Data fitting was done both with unfixed Rmax and with Rmax fixed to the theoretical value* assuming 1:1 binding to allow processing of data from both weak and strong binders as well as to evaluate binding stoichiometry.
Positive controls were run at the beginning, during, and at the end of the screen to evaluate surface activity. Generally surface activity was only affected to a minor degree, and no corrections were applied.
*Equation for calculation of the theoretical Rmax (Theoretical Rmax=(MW Analyte/MW Ligand) x immobilization level).
The sensorgrams for Examples 2a1, 2t1, 2m1, and 2a2 are shown below (where RU is plotted vs. time in seconds; dotted lines/points were excluded from the analysis due to effects from non-specific binding).

[2] = system: Eotaxin-3 (CCL26) release in human whole blood stimulated with IL-4; assay: Human Whole Blood Eotaxin-3 Assay (IL-4 stimulated, inhibition of eotaxin-3 release); assay type: cell-based; details: Homo sapiens, EC50 provided for test compounds with >80% Emax, geometric mean across assay runs and batches
In short: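 Lithium-heparin human whole blood preincubated 2 h at 37 °C with compounds (4-fold serial dilution, triplicate, 0.5% DMSO final), then stimulated with 400 pM IL-4 for 48 h. Eotaxin-3 (CCL26) in supernatant quantified by MSD immunoassay.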

[3] = molecular target: T2, STAT6 (endogenous, HiBiT-tagged) in HeLa LgBiT clone 4.14 cells (Homo sapiens, UniProt P42226); assay: STAT6 Degrader Assay (HiBiT based, HeLa LgBiT clone 4.14 cells, luminescence, DC50); assay type: cell-based; details: geometric mean; for Emax: Emax provided for test compounds with <80% Emax (and 2c15), read-out: STAT6 degradation Emax
T2 construct: These cells express endogenous STAT6; host or cells: HeLa LgBiT clone 4.14
T2 sequence (P42226 1-847): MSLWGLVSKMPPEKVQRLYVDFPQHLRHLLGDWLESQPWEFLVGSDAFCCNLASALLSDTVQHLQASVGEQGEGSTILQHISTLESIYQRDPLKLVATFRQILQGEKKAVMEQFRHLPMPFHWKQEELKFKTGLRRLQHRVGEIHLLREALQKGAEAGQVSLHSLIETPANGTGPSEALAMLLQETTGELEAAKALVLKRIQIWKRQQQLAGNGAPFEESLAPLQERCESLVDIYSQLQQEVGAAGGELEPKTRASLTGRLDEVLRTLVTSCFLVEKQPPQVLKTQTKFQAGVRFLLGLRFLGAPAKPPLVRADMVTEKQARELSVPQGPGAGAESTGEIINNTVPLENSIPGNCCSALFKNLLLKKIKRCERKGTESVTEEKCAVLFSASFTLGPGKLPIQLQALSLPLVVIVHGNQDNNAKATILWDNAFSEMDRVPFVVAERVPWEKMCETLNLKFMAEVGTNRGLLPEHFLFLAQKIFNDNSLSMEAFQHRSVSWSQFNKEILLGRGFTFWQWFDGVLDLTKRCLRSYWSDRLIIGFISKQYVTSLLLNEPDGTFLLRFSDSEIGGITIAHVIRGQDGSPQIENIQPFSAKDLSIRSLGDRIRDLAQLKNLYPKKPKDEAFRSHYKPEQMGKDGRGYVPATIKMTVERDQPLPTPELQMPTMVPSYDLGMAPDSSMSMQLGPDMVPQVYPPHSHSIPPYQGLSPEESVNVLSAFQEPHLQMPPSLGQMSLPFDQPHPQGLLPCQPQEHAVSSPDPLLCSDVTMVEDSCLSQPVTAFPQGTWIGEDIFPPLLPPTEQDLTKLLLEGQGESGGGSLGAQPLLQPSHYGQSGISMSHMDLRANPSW
In short: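 Remaining STAT6 is read as NanoBiT luminescence after 0.5 h with Nano-Glo, in HeLa LgBiT clone 4.14 cells expressing endogenous HiBiT-tagged STAT6, following 4-24 h compound incubation at 37 °C. Full degradation is set by 50 µM terfenadine, which kills the cells; degradation plotted against log compound concentration.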

Structure (SMILES)	Kd [1] [µM]	EC50 [2] [µM]	Emax [3] [%]	DC50 ([3]; DC50 provided for test compounds with >80% Emax, read-out: STAT6 degradation DC50) [µM]
Cn1c(CN2CCC(c3ccc(C(=O)N4CCC(CN5CCN(c6ccc(NC7CCC(=O)NC7=O)cc6F)CC5)CC4)cc3)CC2)cc2c(-c3ccc4[nH]ncc4c3)ccnc21 (stereo not drawn) [Example 2c1, 3-((4-(4-((1-(4-(1-((4-(1H-indazol-5-yl)-1-methyl-1H-pyrrolo[2,3-b]pyridin-2-yl)methyl)-piperidin-4-yl)benzoyl)piperidin-4-yl)methyl)piperazin-1-yl)-3-fluorophenyl)amino)piperidine-2,6-dione]	0.193	0.556	70 to 80	
Cn1c(CN2CCC(c3ccc(C(=O)N4CCC(CN5CCN(c6ccc(NC7CCC(=O)NC7=O)cc6F)CC5)CC4)cc3)CC2)cc2c(-c3cnc(N)c(F)c3)ccnc21 (stereo not drawn) [Example 2c3, 3-((4-(4-((1-(4-(1-((4-(6-amino-5-fluoropyridin-3-yl)-1-methyl-1H-pyrrolo[2,3-b]pyridin-2-yl)-methyl)piperidin-4-yl)benzoyl)piperidin-4-yl)methyl)piperazin-1-yl)-3-fluorophenyl)amino)piperidine-2,6-dione]	< 0.02		< 20	
Cn1c(CN2CCC(c3ccc(C(=O)N4CCC(CN5CCN(c6ccc(NC7CCC(=O)NC7=O)cc6F)CC5)CC4)cc3)CC2)cc2c(-c3ccc(N)nc3C#N)ccnc21 (stereo not drawn) [Example 2c8, 6-amino-3-(2-((4-(4-(4-((4-(4-((2,6-dioxopiperidin-3-yl)amino)-2-fluorophenyl)piperazin-1-yl)-methyl)piperidine-1-carbonyl)phenyl)piperidin-1-yl)methyl)-1-methyl-1H-pyrrolo[2,3-b]pyridin-4-yl)-picolinonitrile]	0.04 to 0.05		< 20	
Cn1c(CN2CCC(c3ccc(C(=O)N4CCC(CN5CCN(C(=O)c6ccc(NC7CCC(=O)NC7=O)cc6F)CC5)CC4)cc3)CC2)cc2c(-c3ccc4[nH]ncc4c3)ccnc21 (stereo not drawn) [Example 2e1, 3-((4-(4-((1-(4-(1-((4-(1H-indazol-5-yl)-1-methyl-1H-pyrrolo[2,3-b]pyridin-2-yl)methyl)-piperidin-4-yl)benzoyl)piperidin-4-yl)methyl)piperazine-1-carbonyl)-3-fluorophenyl)amino)piperidine-2,6-dione]	< 0.02		< 20	
Cn1c(CN2CCC(c3ccc(C(=O)N4CCC(CN5CCC(c6ccc(NC7CCC(=O)NC7=O)cc6F)CC5)CC4)cc3)CC2)cc2c(-c3ccc4[nH]ncc4c3)ccnc21 (stereo not drawn) [Example 2m1, 3-((4-(1-((1-(4-(1-((4-(1H-indazol-5-yl)-1-methyl-1H-pyrrolo[2,3-b]pyridin-2-yl)methyl)-piperidin-4-yl)benzoyl)piperidin-4-yl)methyl)piperidin-4-yl)-3-fluorophenyl)amino)piperidine-2,6-dione]	0.466		60 to 70	

Continued, values first:

Kd [1] [µM]	EC50 [2] [µM]	Emax [3] [%]	DC50 ([3]; DC50 provided for test compounds with >80% Emax, read-out: STAT6 degradation DC50) [µM]	Structure (SMILES)
0.105			0.0081	Cn1c(CN2CCC(c3ccc(C(=O)N4CCN(C(=O)CN5CCC(c6ccc(OC7CCC(=O)NC7=O)cc6F)CC5)CC4)cc3)CC2)cc2c(-c3ccc4[nH]ncc4c3)ccnc21 (stereo not drawn) [Example 2t1, 3-(4-(1-(2-(4-(4-(1-((4-(1H-indazol-5-yl)-1-methyl-1H-pyrrolo[2,3-b]pyridin-2-yl)methyl)-piperidin-4-yl)benzoyl)piperazin-1-yl)-2-oxoethyl)piperidin-4-yl)-3-fluorophenoxy) piperidine-2,6-dione]
< 0.02		< 20		Cn1c(CN2CCC(c3ccc(C(=O)N4CCC(CN5CCC(n6ncc7cc(NC8CCC(=O)NC8=O)ccc76)CC5)CC4)cc3)CC2)cc2c(-c3ccc4[nH]ncc4c3)ccnc21 (stereo not drawn) [Example 2t4, 3-((1-(1-((1-(4-(1-((4-(1H-indazol-5-yl)-1-methyl-1H-pyrrolo[2,3-b]pyridin-2-yl)methyl)-piperidin-4-yl)benzoyl)piperidin-4-yl)methyl)piperidin-4-yl)-1H-indazol-5-yl)amino)piperidine-2,6-dione]
